Results reported in patent publication US20120077705A1, “Methods for Identifying Autophagy Inducing Compounds” (President and Fellows of Harvard College, priority 2007, published 2012).
Where “and” joins values, the source holds several entries; their conditions need not be identical. Identical values can stand only once. Like-named read-outs stand apart in the source and are kept apart here.

Experiments:
H4-LC3 cells = format: cell-based
Description: H4 cells were transfected with the LC3-GFP fusion protein, thereby creating, screening, and yielding an H4-LC3 cell line as a screening platform in order to perform high-content screening of 480 known bioactive compounds (ICCB known bioactive library, BIOMOL), using the following method. DMSO was used to dilute, dissolve, and prepare a compound at different concentrations with each concentration repeated three times. A 96-well plate was inoculated with H4-LC3 cells at an appropriate density and treated for 24 hours with the compound. […] If a compound affected LC3 expression or distribution, then this would be embodied precisely in the image and in the size and intensity of fluorescent spots and the like numerical values. This experiment was repeated three times, and the 72 compounds for which LC3-GFP fluorescent intensity was more than 50% greater than that of the blank control group in the three experiments were selected for analysis. Based on the number of cells determined through counting, those compounds in which cell death exceeded 30% (in comparison with the control group) were eliminated. The remaining compounds were further studied as candidate molecules.

FYVE-RFP = test: High-content analysis of FYVE-RFP fluorescence (PI(3)P level) in H4-FYVE cell line; format: cell-based
Description: Class III PI(3)K Vps34 is a multifunctional protein. On the one hand, it catalyzes the phosphorylation of PI to generate PI(3)P and is of key importance in the endocytic and autophagosome membrane transport processes. At the same time, a compound formed from Vps34/beclin1 is involved in the regulation of autophagy initiation signaling. Therefore, while the autophagy process is taking place, the level of PtdIns(3)P should not be expected to decrease to a significant extent. A FYVE domain is a protein structure domain composed of approximately 70 amino acid residues and containing a zinc finger protein structure; it can bind specifically with PI(3)P. Generally, PI(3)P recruits proteins containing a FYVE domain in order to bind to the membrane of cellular organelles, and participate in protein trafficking and similar processes.
H4 cells were transfected with the fusion protein FYVP-red fluorescent protein (FYVE-RFP). After transfection, the cells were screened in order to obtain a suitable H4-FYVE cell line to be used as a screening platform to perform high-volume screening of compounds, which thereby indirectly reflected the effect of the compound on autophagy. Compounds which reduced FYVE-RFP fluorescence intensity were eliminated. In this experiment, change in the intensity, fluorescence and distribution of the protein marker FYVE-RFP recruited by PI(3)P before and after treatment with the potential autophagy inducing compound was assayed by high-content microscopic analysis.
DMSO was used to dilute, dissolve, and prepare a compound at different concentrations with each concentration repeated three times. A 96-well plate was inoculated with H4-FYVE cells at an appropriate density and treated with the compound for 2, 4, and 8 hours, respectively. […] If a compound affected FYVE expression or distribution, then this would be embodied precisely in the image and in the size and intensity of fluorescent spots and other numerical values.

long-lived proteins = test: Degradation of (3H) L-leucine labelled long-lived proteins in H4 cells; format: cell-based; details: relative to blank control
Description: The process of autophagy is a protein degradation process, which primarily mediates the degradation of cellular organelles and long-lived proteins within the cell. Therefore, in the present experiment the detection of whether a compound promotes the degradation of long-lived proteins within the cell was used as an additional indicator of whether the tested compound induces autophagy.
DMSO was used to dilute, dissolve, and prepare a compound at different concentrations with each concentration repeated three times. A 96-well plate was inoculated with H4 cells at an appropriate density and treated with the compound for 2, 4, and 24 hours, respectively. […] One day prior to the experiment, cells were inoculated onto a 12-well plate at an appropriate density and cultured under normal conditions (DMEM +10% fetal calf serum). […] Then, a complete medium containing (3H) L-leucine was used to incubate the cells for 24 hours causing the cells to take in isotope-labeled leucine and undertake protein synthesis. After 24 hours, a complete culture medium was substituted and used to incubate the cells for 24 hours to degrade short-lived proteins. After the short-lived proteins had been degraded, a complete culture medium to which the compound had been added was substituted and used to incubate the cells. The radiation intensity of the culture medium was tested at 0, 1, 2, 4, and 24 hours, respectively. At 24 hours, the cells were collected and the intensity of the isotope within the cells was tested, and the percent of long-lived protein degradation relative to the blank control group at different times after the action of the compound was computed. Compounds that increased the degradation of long-lived proteins were selected by means oft-test.

LC3 II = test: Western blot of LC3 II in H4-LC cells; format: cell-based
Description: The autophagosome marker LC3 used in the compound-screening platform was subjected to the foregoing processing in the cytosol. Generally when the new LC3 synthesized within the cell was processed, it became cytosolic soluble LC3 I with molecular weight 18 Kd. […] The quantity of LC3 II content reflects to a certain degree the autophagic activity of a cell. Therefore, by assaying the content of LC3 II in the cell by means of the Western blot method, it is possible to further reflect the effect of the compound on autophagy.
H4-LC cells at an appropriate density were inoculated onto a 6-well plate, which was treated with a compound for 4 hours, after which the cells were collected and lysed. The protein fraction was harvested and SDS-PAGE was performed. Following electrophoresis separation the proteins were transferred to a membrane, and immunoblot analysis was performed. The cytoskeleton protein, actin, was used as an internal control.

GFP-polyQ-HA = test: Degradation of expanded polyglutamine (GFP-polyQ-HA) in transfected H4 cells, anti-HA blot; format: cell-based
Method: Large-scale accumulation of misfolded protein is a prominent feature of many neurodegenerative diseases. For example, the pathogenic mechanism of Huntington's disease is that a large amount of polyglutamine (polyQ) protein accumulates in the neurons and cannot be cleared away. Tests of polyQ elimination and degradation were used in this experiment to further determine the ability if the tested compounds to induce autophagy.
The compounds selected through screening were dissolved in DMSO and diluted in a stepwise manner in complete culture medium.

[1] = tested on: Ca2+-activated K+ channels; details: 10-nM penitrem A; cited from earlier work
[2] = H4-LC cells, 4 hours, immunoblot, FIG. 1
[3] = H4 cells transfected with GFP-polyQ-HA, 24 hours, screening concentration and dilutions 1:2.5, 1:5, 1:10, FIG. 2

SMILES	Relative quantity of cells (%) (H4-LC3 cells; human)	Relative fluorescent intensity of FYVE-RFP (%) (FYVE-RFP)	Percent relative degradation of long-lived proteins (%) (long-lived proteins; 1 h)	Percent relative degradation of long-lived proteins (%) (long-lived proteins; 2 h)	Percent relative degradation of long-lived proteins (%) (long-lived proteins; 4 h)	Percent relative degradation of long-lived proteins (%) (long-lived proteins; 24 h)	Increase of endogenous LC3 II / LC3 II/LC3 I percentage (LC3 II)	polyQ degradation (GFP-polyQ-HA)	Destruction of H4 cells (H4-LC3 cells; H4 cells)	Relative fluorescent intensity of FYVE-RFP (%) (FYVE-RFP; H4-FYVE cells, 2 h)	Relative fluorescent intensity of FYVE-RFP (%) (FYVE-RFP; H4-FYVE cells, 4 h)	Relative fluorescent intensity of FYVE-RFP (%) (FYVE-RFP; H4-FYVE cells, 8 h)	Increase of endogenous LC3 II / LC3 II/LC3 I percentage (LC3 II; [2])	polyQ degradation (GFP-polyQ-HA; [3])	Blockage of Ca2+-activated K+ channels [1] [%]
COC(=O)C1=C(C)NC(C)=C(C(=O)OCCCN2CCC(c3ccccc3)(c3ccccc3)CC2)C1c1cccc([N+](=O)[O-])c1.Cl (stereo not shown) [Niguldipine]	132.78 ± 18.11	147.18 ± 25.39% and 148.26 ± 3.67% and 125.53 ± 2.84%	71.65 ± 2.68	107.42 ± 2.72	105.68 ± 2.74	117.85 ± 1.98	increase of endogenous LC3 II	increased polyQ degradation							
C=C(C)[C@H]1O[C@H]2CC[C@@]3(C)[C@@](O)(CC[C@H]4[C@@H]5OC(C)(C)[C@H]6C[C@@H]7C(=C)Cc8c(Cl)cc9[nH]c(c5c9c8[C@@]76O)[C@@]43C)[C@]23O[C@@H]3[C@H]1O [Penitrem A]			92.88 ± 2.83	126.09 ± 0.47	132.13 ± 10.01	141.83 ± 1.25			does not destroy H4 cells	121.40 ± 12.66	87.41 ± 5.90	72.71 ± 5.57	increase of endogenous LC3 II	increased polyQ degradation	100
COC(=O)C1=C(C)NC(C)=C(C(=O)OCCN(C)Cc2ccccc2)C1c1cccc([N+](=O)[O-])c1.Cl (stereo not shown) [Nicardipine]			84.62 ± 4.48	126.59 ± 3.83	122.60 ± 7.70	121.03 ± 13.43				132.05 ± 19.93	112.51 ± 10.09	104.77 ± 31.63	increase of endogenous LC3 II	increased polyQ degradation	
O=c1[nH]c2ccccc2n1C1CCN(CCCC(c2ccc(F)cc2)c2ccc(F)cc2)CC1 [Pimozide]			129.13 ± 11.46	155.80 ± 9.22	152.01 ± 9.63	162.47 ± 3.50				94.42 ± 4.71	103.96 ± 9.06	73.64 ± 12.18	increase of endogenous LC3 II	increased polyQ degradation	
